Test results published in BindingDB's records for doi:10.1016/j.bioorg.2006.01.004 (University of Zagreb, 2006).
Several values for one entry are separate records, joined by “and”; a condition that tells them apart may be missing. Identical values can stand only once.

Molecular target: Carboxylic ester hydrolase (Equus caballus, UniProt Q9N1N9)
Experiment: Inhibition Assay
Details: 40 °C
Procedure: Butyrylcholinesterase type IV-S, lyophilized from horse serum (sigma Chemical Co.) was used without further purification. HPLC analyses (Thermo Separation Products, Spectra SYSTEM 2000) were performed on an RP-18 column at 40 C.

Carboxylic ester hydrolase, sequence (Q9N1N9 whole entry): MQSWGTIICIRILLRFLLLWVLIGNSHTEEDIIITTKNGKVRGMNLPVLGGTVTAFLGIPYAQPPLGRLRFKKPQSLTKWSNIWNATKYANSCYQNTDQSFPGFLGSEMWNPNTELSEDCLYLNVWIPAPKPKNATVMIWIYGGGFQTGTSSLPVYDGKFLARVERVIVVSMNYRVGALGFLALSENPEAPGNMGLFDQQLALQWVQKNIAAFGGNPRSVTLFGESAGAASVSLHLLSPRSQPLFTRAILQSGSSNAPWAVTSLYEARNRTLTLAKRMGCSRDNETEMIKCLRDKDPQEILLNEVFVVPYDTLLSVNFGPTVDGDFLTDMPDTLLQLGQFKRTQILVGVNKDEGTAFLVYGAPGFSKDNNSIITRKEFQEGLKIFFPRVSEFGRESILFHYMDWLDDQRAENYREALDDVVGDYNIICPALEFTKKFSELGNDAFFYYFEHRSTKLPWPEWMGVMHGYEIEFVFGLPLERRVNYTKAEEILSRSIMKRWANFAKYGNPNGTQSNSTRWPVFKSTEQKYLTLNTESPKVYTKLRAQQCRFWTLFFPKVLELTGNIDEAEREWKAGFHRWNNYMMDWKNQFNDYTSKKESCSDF

| SMILES | Ki |
| --- | --- |
| O=C(NC1C[N+]2(Cc3ccccc3)CCC1CC2)c1ccccc1 [(S)-N-Benzyl-3-benzamidoquinuclidinium bromide, 12] | 25.9 µM and 3.7 µM |
| CCCC(=O)NC1C[N+]2(Cc3ccccc3)CCC1CC2 [(S)-N-Benzyl-3-butanamidoquinuclidinium bromide, 9] | 160 µM and 242 µM |
